# Test results from ChEMBL document CHEMBL5465560, “Selectivity Literature for EUbOPEN Chemogenomic Library” (2024).
# Experiments:
# [1] = target: Serine/threonine-protein kinase Chk2 (Homo sapiens) (UniProt O96017); assay: Selectivity interaction (Kinase panel (literature)) EUB0001199aCl CHEK2; conditions: at 1 µM
# [2] = target: T1, Serine/threonine-protein kinase RIO3 (Homo sapiens) (UniProt O14730); assay: Selectivity interaction (KinomeScan (DiscoverX)) EUB0001079a RIOK3; conditions: at 1 µM
# T1 sequence (whole entry): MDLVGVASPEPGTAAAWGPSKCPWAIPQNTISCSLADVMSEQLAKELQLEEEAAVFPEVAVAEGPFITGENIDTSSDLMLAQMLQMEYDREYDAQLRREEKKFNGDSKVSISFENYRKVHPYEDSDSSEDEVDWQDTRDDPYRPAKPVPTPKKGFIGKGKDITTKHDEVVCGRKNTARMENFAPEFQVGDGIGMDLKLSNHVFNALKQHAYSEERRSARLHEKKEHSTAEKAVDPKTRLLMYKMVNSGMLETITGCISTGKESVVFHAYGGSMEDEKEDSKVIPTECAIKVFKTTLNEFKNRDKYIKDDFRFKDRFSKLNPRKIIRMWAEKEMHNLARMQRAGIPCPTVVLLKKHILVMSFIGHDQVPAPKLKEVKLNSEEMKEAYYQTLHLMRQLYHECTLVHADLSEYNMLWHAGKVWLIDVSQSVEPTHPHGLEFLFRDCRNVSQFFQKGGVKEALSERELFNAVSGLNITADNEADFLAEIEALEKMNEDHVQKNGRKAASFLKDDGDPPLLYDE
# [3] = target: Misshapen-like kinase 1 (Homo sapiens, UniProt Q8N4C8); assay: Selectivity interaction (Kinase screening (Nanosyn)) EUB0000604a MINK1
# [4] = target: T2, MAP/microtubule affinity-regulating kinase 4 (Homo sapiens) (UniProt Q96L34); assay: Selectivity interaction (KinomeScan (DiscoverX)) EUB0000045b MARK4
# T2 sequence (whole entry): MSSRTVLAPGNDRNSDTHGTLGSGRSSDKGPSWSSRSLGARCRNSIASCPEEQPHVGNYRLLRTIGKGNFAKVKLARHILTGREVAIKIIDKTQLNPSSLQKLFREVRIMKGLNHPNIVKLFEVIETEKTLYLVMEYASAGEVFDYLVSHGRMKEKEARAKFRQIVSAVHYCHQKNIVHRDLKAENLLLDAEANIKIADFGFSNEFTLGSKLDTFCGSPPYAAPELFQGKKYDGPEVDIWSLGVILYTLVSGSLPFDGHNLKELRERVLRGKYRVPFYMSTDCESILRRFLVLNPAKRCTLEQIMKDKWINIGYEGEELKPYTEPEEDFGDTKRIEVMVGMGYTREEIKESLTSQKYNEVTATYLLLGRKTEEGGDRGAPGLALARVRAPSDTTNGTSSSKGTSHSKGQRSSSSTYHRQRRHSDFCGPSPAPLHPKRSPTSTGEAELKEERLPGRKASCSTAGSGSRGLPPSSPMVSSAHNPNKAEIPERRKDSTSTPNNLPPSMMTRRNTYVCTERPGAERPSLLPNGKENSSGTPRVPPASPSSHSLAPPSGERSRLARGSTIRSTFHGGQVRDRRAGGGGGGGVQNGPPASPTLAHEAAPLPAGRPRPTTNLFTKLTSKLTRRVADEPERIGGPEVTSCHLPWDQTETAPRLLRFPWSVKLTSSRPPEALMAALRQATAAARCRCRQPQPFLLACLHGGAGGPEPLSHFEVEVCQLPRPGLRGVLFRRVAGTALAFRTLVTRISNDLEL
# [5] = target: Homeodomain-interacting protein kinase 1 (Homo sapiens, UniProt Q86Z02); assay: Selectivity interaction (KinomeScan (DiscoverX)) EUB0000045b HIPK1
# [6] = target: T3, Mitogen-activated protein kinase kinase kinase kinase 2 (Homo sapiens) (UniProt Q12851); assay: Selectivity interaction (KinomeScan (DiscoverX)) EUB0000655a MAP4K2; conditions: at 10 µM
# T3 sequence (whole entry): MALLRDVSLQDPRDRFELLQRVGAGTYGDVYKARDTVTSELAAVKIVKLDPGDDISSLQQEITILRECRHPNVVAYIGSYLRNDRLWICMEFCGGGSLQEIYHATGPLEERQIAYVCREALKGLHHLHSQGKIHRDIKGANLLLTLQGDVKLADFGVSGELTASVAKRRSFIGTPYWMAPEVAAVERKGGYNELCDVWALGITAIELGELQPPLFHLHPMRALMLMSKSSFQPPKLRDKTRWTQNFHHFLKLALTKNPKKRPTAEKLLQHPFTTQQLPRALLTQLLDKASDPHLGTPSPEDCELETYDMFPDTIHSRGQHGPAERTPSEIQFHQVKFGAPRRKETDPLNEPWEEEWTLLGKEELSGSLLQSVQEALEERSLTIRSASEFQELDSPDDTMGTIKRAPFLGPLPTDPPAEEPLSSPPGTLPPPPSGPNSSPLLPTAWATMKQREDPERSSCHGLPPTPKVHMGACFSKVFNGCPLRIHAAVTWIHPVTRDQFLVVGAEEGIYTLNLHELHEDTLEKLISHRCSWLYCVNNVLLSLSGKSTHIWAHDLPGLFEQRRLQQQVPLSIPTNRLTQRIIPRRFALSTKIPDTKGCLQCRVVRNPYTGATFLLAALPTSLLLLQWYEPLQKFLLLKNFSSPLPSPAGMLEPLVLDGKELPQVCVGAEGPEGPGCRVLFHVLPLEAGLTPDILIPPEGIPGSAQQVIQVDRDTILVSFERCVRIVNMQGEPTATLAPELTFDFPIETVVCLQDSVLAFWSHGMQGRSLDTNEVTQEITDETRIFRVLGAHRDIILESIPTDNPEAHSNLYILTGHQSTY
# [7] = target: Tyrosine-protein kinase Lck (Homo sapiens, UniProt P06239); assay: Selectivity interaction (KinomeScan (DiscoverX)) EUB0000607a LCK; conditions: at 10 µM
# [8] = target: Serine/threonine-protein kinase WNK2 (Homo sapiens) (UniProt Q9Y3S1); assay: Selectivity interaction (ProQinase) EUB0000171b WNK2
# Serine/threonine-protein kinase WNK2 (Homo sapiens), sequence (Q9Y3S1 whole entry): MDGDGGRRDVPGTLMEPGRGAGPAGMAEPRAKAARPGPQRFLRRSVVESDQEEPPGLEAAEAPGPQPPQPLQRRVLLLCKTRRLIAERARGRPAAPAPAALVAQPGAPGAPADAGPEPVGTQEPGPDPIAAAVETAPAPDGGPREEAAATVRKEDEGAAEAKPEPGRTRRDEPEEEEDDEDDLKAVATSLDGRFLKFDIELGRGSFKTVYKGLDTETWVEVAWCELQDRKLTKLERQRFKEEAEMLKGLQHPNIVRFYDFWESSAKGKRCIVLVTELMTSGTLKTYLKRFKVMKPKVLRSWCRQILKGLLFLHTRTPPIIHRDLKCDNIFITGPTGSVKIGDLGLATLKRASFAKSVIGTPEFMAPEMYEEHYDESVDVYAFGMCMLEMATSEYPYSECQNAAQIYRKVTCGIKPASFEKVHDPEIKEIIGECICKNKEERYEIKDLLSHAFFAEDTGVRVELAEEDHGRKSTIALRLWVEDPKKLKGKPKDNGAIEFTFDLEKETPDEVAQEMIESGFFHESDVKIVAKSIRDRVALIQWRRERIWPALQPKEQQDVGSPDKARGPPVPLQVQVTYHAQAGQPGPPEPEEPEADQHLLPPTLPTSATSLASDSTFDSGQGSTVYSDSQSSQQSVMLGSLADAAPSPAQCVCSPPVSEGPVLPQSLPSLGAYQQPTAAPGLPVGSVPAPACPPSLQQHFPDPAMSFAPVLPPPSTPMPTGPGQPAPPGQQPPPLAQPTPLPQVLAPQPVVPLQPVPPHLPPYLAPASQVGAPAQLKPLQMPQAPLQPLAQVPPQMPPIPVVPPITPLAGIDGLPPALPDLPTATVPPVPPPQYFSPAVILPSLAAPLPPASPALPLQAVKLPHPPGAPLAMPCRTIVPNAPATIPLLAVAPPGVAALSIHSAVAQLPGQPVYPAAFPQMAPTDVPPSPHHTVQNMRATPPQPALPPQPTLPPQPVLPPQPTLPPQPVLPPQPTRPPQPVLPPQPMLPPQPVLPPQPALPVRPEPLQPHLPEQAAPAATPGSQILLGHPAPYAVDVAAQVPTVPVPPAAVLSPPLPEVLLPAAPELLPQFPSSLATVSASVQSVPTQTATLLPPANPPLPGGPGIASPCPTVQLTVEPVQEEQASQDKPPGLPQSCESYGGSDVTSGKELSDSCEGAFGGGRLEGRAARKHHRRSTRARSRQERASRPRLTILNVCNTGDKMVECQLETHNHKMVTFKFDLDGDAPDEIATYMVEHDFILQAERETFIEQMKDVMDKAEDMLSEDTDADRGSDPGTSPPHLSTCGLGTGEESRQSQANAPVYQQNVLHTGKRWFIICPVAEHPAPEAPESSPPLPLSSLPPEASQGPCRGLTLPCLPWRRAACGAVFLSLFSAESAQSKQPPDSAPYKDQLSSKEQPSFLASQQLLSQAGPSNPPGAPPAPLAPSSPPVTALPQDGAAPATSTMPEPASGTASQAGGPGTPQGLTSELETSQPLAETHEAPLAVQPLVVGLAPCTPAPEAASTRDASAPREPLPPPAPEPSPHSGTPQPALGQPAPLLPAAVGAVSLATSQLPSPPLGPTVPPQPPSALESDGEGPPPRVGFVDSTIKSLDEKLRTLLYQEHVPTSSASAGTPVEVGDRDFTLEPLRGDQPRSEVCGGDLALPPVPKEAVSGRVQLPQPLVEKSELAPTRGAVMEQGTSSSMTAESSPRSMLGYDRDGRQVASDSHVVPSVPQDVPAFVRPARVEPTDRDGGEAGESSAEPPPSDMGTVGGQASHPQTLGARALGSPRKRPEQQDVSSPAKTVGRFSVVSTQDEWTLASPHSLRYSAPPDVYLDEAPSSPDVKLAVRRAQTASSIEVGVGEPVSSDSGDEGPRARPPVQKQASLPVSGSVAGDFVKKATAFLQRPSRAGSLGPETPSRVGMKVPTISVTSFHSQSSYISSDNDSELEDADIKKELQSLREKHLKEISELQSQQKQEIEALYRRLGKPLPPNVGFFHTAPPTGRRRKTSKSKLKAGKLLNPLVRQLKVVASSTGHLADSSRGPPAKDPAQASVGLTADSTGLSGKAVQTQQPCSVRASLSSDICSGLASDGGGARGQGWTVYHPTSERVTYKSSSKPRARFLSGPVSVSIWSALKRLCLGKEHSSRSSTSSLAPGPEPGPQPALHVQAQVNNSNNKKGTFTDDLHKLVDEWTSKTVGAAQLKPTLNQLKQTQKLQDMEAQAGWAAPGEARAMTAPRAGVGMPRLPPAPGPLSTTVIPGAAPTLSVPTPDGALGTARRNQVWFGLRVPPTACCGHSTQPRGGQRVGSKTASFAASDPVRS
# Homeodomain-interacting protein kinase 1, sequence (Q86Z02 whole entry, looked up): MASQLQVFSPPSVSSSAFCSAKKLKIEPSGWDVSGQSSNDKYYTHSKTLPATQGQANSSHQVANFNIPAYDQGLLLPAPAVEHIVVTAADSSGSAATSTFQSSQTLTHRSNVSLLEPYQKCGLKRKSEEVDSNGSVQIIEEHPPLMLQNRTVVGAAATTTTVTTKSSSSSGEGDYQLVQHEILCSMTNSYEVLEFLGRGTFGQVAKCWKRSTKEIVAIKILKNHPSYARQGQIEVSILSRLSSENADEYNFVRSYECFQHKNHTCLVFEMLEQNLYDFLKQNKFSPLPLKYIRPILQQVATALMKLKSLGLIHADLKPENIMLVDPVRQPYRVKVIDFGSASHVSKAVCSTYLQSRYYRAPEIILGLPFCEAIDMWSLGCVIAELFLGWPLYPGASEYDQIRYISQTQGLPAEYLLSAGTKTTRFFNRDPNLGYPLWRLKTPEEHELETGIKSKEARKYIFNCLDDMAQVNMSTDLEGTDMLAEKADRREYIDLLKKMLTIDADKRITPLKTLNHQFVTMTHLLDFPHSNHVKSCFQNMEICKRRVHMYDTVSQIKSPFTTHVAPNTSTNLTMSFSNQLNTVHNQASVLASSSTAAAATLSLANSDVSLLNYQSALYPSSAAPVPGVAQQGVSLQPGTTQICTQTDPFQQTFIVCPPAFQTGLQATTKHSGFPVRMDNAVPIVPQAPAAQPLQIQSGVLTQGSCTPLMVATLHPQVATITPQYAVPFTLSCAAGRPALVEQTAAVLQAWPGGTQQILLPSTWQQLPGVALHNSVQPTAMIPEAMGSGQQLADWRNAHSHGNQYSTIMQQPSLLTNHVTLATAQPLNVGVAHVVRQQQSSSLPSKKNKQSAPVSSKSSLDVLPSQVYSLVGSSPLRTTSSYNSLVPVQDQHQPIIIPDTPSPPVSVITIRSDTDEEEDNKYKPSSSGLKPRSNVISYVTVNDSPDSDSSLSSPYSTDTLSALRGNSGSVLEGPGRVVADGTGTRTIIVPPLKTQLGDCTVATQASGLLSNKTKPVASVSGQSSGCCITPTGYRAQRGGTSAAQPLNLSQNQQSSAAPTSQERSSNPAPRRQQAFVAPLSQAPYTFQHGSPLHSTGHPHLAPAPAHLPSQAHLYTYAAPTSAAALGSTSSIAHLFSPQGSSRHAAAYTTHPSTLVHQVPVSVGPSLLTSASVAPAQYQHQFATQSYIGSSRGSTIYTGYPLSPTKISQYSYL
# Tyrosine-protein kinase Lck, sequence (P06239 2-509 limits assumed): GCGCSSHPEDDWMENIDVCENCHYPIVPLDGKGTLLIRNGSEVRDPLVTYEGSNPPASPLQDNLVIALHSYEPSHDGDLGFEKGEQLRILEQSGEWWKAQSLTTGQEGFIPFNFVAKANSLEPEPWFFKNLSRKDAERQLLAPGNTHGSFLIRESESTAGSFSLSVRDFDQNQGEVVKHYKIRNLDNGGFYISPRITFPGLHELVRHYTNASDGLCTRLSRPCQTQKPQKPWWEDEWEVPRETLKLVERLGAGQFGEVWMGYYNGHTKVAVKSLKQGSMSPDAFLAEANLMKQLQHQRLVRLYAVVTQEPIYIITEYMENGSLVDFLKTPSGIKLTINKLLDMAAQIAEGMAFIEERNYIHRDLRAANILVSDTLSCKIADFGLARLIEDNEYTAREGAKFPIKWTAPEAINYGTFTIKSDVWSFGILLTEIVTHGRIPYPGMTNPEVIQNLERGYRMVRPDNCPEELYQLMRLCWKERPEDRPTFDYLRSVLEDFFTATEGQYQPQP
# Serine/threonine-protein kinase Chk2 (Homo sapiens), sequence (O96017 whole entry): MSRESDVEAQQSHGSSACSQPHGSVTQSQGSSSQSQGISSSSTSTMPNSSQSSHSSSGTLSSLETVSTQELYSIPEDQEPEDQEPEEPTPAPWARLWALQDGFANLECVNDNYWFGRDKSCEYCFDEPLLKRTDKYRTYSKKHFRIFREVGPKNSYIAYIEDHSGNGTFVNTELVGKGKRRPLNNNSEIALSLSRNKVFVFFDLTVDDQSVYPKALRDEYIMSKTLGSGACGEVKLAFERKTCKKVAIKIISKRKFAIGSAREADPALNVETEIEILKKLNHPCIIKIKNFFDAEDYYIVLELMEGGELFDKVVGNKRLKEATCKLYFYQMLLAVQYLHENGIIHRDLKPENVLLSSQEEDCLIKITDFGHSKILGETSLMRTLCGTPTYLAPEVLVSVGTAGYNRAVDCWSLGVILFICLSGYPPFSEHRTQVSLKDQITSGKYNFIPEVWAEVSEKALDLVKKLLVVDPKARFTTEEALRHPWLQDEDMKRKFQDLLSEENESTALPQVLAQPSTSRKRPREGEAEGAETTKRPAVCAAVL
smiles,measurement,setting,value
CN1Cc2nccc(-c3cn(C)nc3-c3ccc(F)cc3)c2C1=O,% of inhibition,[1],0%
Nc1cnc(N2CCc3cc(S(=O)(=O)Nc4c(F)cc(Cl)cc4F)cc(N4CCCC4=O)c32)nc1 [TP-020n],% of control,[2],100%
Cc1cnc(Nc2ccc(F)cc2Cl)nc1-c1c[nH]c(C(=O)N[C@H](CO)c2cccc(Cl)c2)c1,% of inhibition,[3],18%
C=CC(=O)Nc1cc(-n2c(=O)ccc3cnc4ccc(-c5ccc(NS(C)(=O)=O)cc5)cc4c32)ccc1C,% of control,[4]; at 1 µM,80%
same,% of control,[4]; at 10 µM,76%
same,% of control,[5]; at 1 µM,100%
same,% of control,[5]; at 10 µM,56%
CN(C)CCOc1ccc(-c2nc(-c3ccncc3)c(-c3ccc4c(c3)CC/C4=N\O)[nH]2)cc1,% of control,[6],74%
CNC(=O)Nc1ccc(-c2nc(N3CC4CCC(C3)O4)c3cnn(C4CCC5(CC4)OCCO5)c3n2)cc1,% of control,[7],100%
C=CC(=O)Nc1cccc(C(=O)Nc2ccc(Nc3cc(-c4[nH]c(SC)nc4C)ccn3)cc2)c1,% of control,[8]; at 1 µM,98%
same,% of control,[8]; at 5 µM,78%
